Results on twelve compounds are retold here after ChEMBL document CHEMBL1145319, “Modeling and synthesis of non-cyclic derivatives of GPI-1046 as potential FKBP ligands with neurotrophic properties” (Bioorg Med Chem Lett, 2006).

In experiment [1] the target is T1, Peptidyl-prolyl cis-trans isomerase FKBP4 (Homo sapiens) (UniProt Q02790).
T1 sequence (whole entry): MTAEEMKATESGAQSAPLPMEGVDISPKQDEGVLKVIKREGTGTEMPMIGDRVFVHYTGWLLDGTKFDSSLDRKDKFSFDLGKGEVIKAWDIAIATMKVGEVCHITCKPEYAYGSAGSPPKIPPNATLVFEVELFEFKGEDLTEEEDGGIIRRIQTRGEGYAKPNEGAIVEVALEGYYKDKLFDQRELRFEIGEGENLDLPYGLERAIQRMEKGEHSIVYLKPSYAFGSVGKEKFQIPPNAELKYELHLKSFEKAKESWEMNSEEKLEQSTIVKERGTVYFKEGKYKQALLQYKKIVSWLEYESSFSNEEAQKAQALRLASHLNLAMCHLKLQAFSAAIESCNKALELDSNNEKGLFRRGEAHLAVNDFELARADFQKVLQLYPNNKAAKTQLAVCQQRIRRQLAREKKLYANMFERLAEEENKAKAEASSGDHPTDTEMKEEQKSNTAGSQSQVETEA
The experiment is described as follows: Neurotrophic activity in chick dorsal root ganglion at 1 pM in presence of NGF after 48 hrs relative to control. The format is functional, tissue-based. The settings on record: Gallus gallus, target entry is the homologue from another species.

Experiment [2] addresses T1, Peptidyl-prolyl cis-trans isomerase FKBP4 (Homo sapiens). The experiment in a line: Neurotrophic activity in chick dorsal root ganglion at 100 pM in presence of NGF after 48 hrs relative to control. The class given is functional, tissue-based. The settings on record: Gallus gallus, target entry is the homologue from another species.

Take `CC(C)C[C@H](NC(=O)C(=O)C(C)(C)C)C(=O)OCCCOc1ccccc1`: the Activity in experiment [1] turned out to be 108%; in experiment [2] it was 93%.

Take `CC(C)C[C@H](NC(=O)C(=O)C(C)(C)C)C(=O)OCCCc1ccccc1`: the Activity in experiment [1] is 73%; in experiment [2] it was 92%.

Take `CCC(C)(C)C(=O)C(=O)N1CCC[C@H]1C(=O)OCCCc1cccnc1`: the Activity in experiment [2] worked out at 120%.

In the case of `CC(C)[C@H](NC(=O)C(=O)C(C)(C)C)C(=O)OCCCc1ccccc1`, the Activity worked out at 65% in experiment [1] and 78% in experiment [2].

Consider `CC(C)C[C@H](NC(=O)C(=O)C(C)(C)C)C(=O)OCCCC1CCCCC1`, for which the Activity in experiment [1] is 123%; in experiment [2] it was 101%.

For `CC(C)[C@H](NC(=O)C(=O)C(C)(C)C)C(=O)OCCCOc1ccccc1`, the Activity in experiment [1] is 85%; in experiment [2] it was 93%.

As to `CCC(C)(C)C(=O)C(=O)N[C@H](C(=O)OCCCc1cccnc1)C(C)C`, the figures for the Activity in experiment [1] and in experiment [2] were 100% and 120%, respectively.

For `CCC(C)(C)C(=O)C(=O)N[C@H](C(=O)OCCc1ccccc1C(F)(F)F)C(C)C`, the Activity turned out to be 123% in experiment [1] and 207% in experiment [2].

`CC(C)[C@H](NC(=O)C(=O)C(C)(C)C)C(=O)OCCCc1cccnc1`: the Activity worked out at 115% in experiment [1] and 136% in experiment [2].

In the case of `CC(C)[C@H](NC(=O)C(=O)C(C)(C)C)C(=O)OCCCC1CCCCC1`, the Activity in experiment [1] stood at 136%; in experiment [2] it was 45%.

As to `CCC(C)(C)C(=O)C(=O)N[C@H](C(=O)OCCCc1ccccc1)C(C)C`, the Activity is 39% in experiment [1] and 117% in experiment [2].

As to `CC(C)C[C@H](NC(=O)C(=O)C(C)(C)C)C(=O)OCCCc1cccnc1`, the Activity was 129% in experiment [1] and 65% in experiment [2].
